From ChEMBL document CHEMBL1150515, “Synthesis and structure-activity relationships of novel THF 1-methylcarbapenems II” (1997)
Values after ≈ are worked out from the molar mass of the structure shown.

Legend:
[1] = Antimicrobial activity against Morganella morganii (GC 2213); type: functional
[2] = Antimicrobial activity against Citrobacter freundii (GC 2211); type: functional
[3] = system: Escherichia coli; experiment: Antimicrobial activity against Escherichia coli (GC 1792); type: functional
[4] = system: Acinetobacter calcoaceticus; experiment: Antimicrobial activity against Acinetobacter calcoaceticus (GC 756); type: functional
[5] = Antimicrobial activity against Enterococcus faecalis (GC 842); type: functional
[6] = Antimicrobial activity against Enterococcus faecium (GC 1182); type: functional
[7] = system: Pseudomonas aeruginosa; experiment: Antimicrobial activity against Pseudomonas aeruginosa (GC 1544 OprD); type: functional
[8] = system: Escherichia coli; experiment: Antimicrobial activity against Escherichia coli (ATCC 25922); type: functional
[9] = system: Escherichia coli; experiment: Antimicrobial activity against Escherichia coli (GC 2205); type: functional
[10] = system: Staphylococcus aureus; experiment: Antimicrobial activity against methicillin - resistant Staphylococcus aureus (GC 2220); type: functional
[11] = biological target: T1, Dipeptidase 1 (Sus scrofa) (UniProt P22412); experiment: Relative hydrolysis to that of imipenem was determined by hog renal dehydropeptidase
T1 sequence (whole entry): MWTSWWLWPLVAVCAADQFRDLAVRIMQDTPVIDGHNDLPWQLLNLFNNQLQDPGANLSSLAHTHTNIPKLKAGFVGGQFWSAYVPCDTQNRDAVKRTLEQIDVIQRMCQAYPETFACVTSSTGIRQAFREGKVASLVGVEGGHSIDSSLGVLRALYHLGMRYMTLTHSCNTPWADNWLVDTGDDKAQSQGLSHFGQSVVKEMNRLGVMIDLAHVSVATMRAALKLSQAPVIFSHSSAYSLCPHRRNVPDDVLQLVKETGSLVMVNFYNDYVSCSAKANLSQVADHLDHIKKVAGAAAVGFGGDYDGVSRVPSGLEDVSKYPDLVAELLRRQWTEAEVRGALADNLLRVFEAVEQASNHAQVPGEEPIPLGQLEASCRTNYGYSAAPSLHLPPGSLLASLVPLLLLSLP

[12] = Antimicrobial activity against Xanthomonas maltophilia (GC 562); type: functional; conditions: Stenotrophomonas maltophilia
[13] = system: Staphylococcus aureus; experiment: Antimicrobial activity against Staphylococcus aureus (ATCC 29213); type: functional
[14] = Antimicrobial activity against Enterobacter cloacae (GC 2209); type: functional
[15] = system: Pseudomonas aeruginosa; experiment: Antimicrobial activity against Pseudomonas aeruginosa (ATCC 27853); type: functional

SMILES | MIC [1] [µg/mL] | MIC [2] [µg/mL] | MIC [3] [µg/mL] | MIC [4] [µg/mL] | MIC [5] [µg/mL] | MIC [6] [µg/mL] | MIC [7] [µg/mL] | MIC [8] [µg/mL] | MIC [9] [µg/mL] | MIC [10] [µg/mL] | Relative hydrolysis [11] | MIC [12] [µg/mL] | MIC [13] [µg/mL] | MIC [14] [µg/mL] | MIC [15] [µg/mL]
C[C@@H](O)[C@H]1C(=O)N2C(C(=O)[O-])=C(S[C@@H]3CCO[C@@H]3C/N=C\N)[C@H](C)[C@H]12.[Na+] | 1 | 0.5 | ≤ 0.06 | 8 | 2 | > 128 | 32 | ≤ 0.06 | 0.12 | 4 | 18 | > 128 | ≤ 0.06 | ≤ 0.06 | 16
C[C@@H](O)[C@H]1C(=O)N2C(C(=O)[O-])=C(SC3COC(C/N=C/N(C)C)C3)[C@H](C)[C@H]12.[Na+] (stereo partly specified) | 2 | 0.5 | 0.12 | 16 | 8 | > 128 | 32 | 0.12 | 0.12 | 16 |  | > 128 | 0.12 | 0.12 | 16
C[C@@H](N)C(=O)NC[C@H]1OCC[C@H]1SC1=C(C(=O)[O-])N2C(=O)[C@H]([C@@H](C)O)[C@H]2[C@H]1C.[Na+] | 1 | 1 | 0.12 | 8 | 2 | > 128 | 64 | ≤ 0.06 | ≤ 0.06 | 8 | 3 | > 128 | ≤ 0.06 | 0.25 | 64
CC(=O)NC[C@H]1OCC[C@H]1SC1=C(C(=O)[O-])N2C(=O)[C@H]([C@@H](C)O)[C@H]2[C@H]1C.[Na+] | 0.5 | 2 | 0.12 | 16 | 8 | > 128 | > 128 | ≤ 0.06 | ≤ 0.06 | 16 | 4 | > 128 | 0.12 | 0.5 | 128
CNCC(=O)NCC1CC(SC2=C(C(=O)[O-])N3C(=O)[C@H]([C@@H](C)O)[C@H]3[C@H]2C)CO1.[Na+] (stereo partly specified) | 0.25 | 0.25 | ≤ 0.06 | 2 | 4 | > 128 | 32 | ≤ 0.06 | ≤ 0.06 | 16 |  | > 128 | ≤ 0.06 | ≤ 0.06 | 32
C[C@@H](O)[C@H]1C(=O)N2C(C(=O)[O-])=C(S[C@@H]3CCO[C@@H]3CN)[C@H](C)[C@H]12.[Na+] | 0.5 | ≤ 0.06 | ≤ 0.06 | 2 | 0.5 | 64 | 16 | ≤ 0.06 | ≤ 0.06 | 1 | 8.5 | > 128 | ≤ 0.06 | ≤ 0.06 | 8
C[C@@H](O)[C@H]1C(=O)N2C(C(=O)[O-])=C(SC3COC(C[N+](C)(C)C)C3)[C@H](C)[C@H]12 (stereo partly specified) | 4 (≈ 10.4 µM) | 1 (≈ 2.6 µM) | 0.25 (≈ 0.65 µM) | 16 (≈ 41.6 µM) | 8 (≈ 20.8 µM) | > 128 | 64 (≈ 166 µM) | 0.25 (≈ 0.65 µM) | 0.25 (≈ 0.65 µM) | 16 (≈ 41.6 µM) |  | > 128 | 0.12 (≈ 0.312 µM) | 0.25 (≈ 0.65 µM) | 32 (≈ 83.2 µM)
CNC[C@H]1OCC[C@H]1SC1=C(C(=O)[O-])N2C(=O)[C@H]([C@@H](C)O)[C@H]2[C@H]1C.[Na+] | 0.5 | 0.12 | ≤ 0.06 | 4 | 0.5 | > 64 | 32 | ≤ 0.06 | ≤ 0.06 | 1 | 10 | > 128 | ≤ 0.06 | ≤ 0.06 | 8
CC(=O)NCC1CC(SC2=C(C(=O)[O-])N3C(=O)[C@H]([C@@H](C)O)[C@H]3[C@H]2C)CO1.[Na+] (stereo partly specified) | 0.5 | 2 | 0.12 | 8 | 8 | > 128 | 128 | ≤ 0.06 | ≤ 0.06 | 16 | 4 | > 128 | 0.12 | 0.5 | 64
C[C@@H](O)[C@H]1C(=O)N2C(C(=O)[O-])=C(S[C@@H]3CCO[C@@H]3CN(C)C)[C@H](C)[C@H]12.[Na+] | 0.5 | 0.25 | 0.06 | 4 | 1 | 64 | 32 | 0.03 | 0.06 | 4 | 7.5 | > 128 | 0.06 | ≤ 0.12 | 16
C[C@@H](O)[C@H]1C(=O)N2C(C(=O)[O-])=C(SC3COC(C/N=C/N)C3)[C@H](C)[C@H]12.[Na+] (stereo partly specified) | 0.5 | ≤ 0.06 | ≤ 0.06 | 2 | 2 | > 128 | 16 | ≤ 0.06 | ≤ 0.06 | 8 |  | > 128 | ≤ 0.06 | ≤ 0.06 | 8
C[C@H](N)C(=O)N[C@@H](C)C(=O)NC[C@H]1OCC[C@H]1SC1=C(C(=O)[O-])N2C(=O)[C@H]([C@@H](C)O)[C@H]2[C@H]1C.[Na+] | 2 | 8 | ≤ 0.06 | 32 | 4 | > 128 | > 128 | ≤ 0.06 | 0.12 | 64 | 13 | > 128 | 1 | 2 | 64
CCN1CCN(C(=O)NCC2CC(SC3=C(C(=O)[O-])N4C(=O)[C@H]([C@@H](C)O)[C@H]4[C@H]3C)CO2)C(=O)C1=O.[Na+] (stereo partly specified) | 16 | 32 | 4 | 128 | 16 | > 128 | 128 | 2 | 0.25 | 32 | 13 | > 128 | 0.5 | 8 | > 128
